Measurements as given in publication PMC11604048, “Constrained TACC3 peptidomimetics for a non-canonical protein–protein interface elucidate allosteric communication in Aurora-A kinase” (Chemical Science, 2024).
Where two headings read alike, the source gives them in different places. *1 amine or outer side, *2 acyl side, *3 side chain or, on linkers, in order; H or OH if unused. Where a SMILES comes first, the peptide text is derived from it. Bridges are numbered along the chain shown (N, C = ends). Biphenyl(4,4'-CH2)2 = c1cc(-c2ccc(C[*:2])cc2)ccc1C[*:1]; Maleimide(3,4-diyl) = O=C1NC(=O)C([*:2])=C1[*:1]

Target: T1, Aurora-A122-403-C290A/C393A (Homo sapiens, UniProt O14965, C290A/C393A)
T1 construct: Human Aurora-A kinase domain 122-403 wild-type or C290A/ C393A mutant; His tag (pET30TEV vector) (N, cleaved yes); made in house; host or cells: E. coli RIL, co-expressed with lambda phosphatase (Aurora-A); tracer by solid phase synthesis
T1 sequence (O14965 122-403 C290A/C393A): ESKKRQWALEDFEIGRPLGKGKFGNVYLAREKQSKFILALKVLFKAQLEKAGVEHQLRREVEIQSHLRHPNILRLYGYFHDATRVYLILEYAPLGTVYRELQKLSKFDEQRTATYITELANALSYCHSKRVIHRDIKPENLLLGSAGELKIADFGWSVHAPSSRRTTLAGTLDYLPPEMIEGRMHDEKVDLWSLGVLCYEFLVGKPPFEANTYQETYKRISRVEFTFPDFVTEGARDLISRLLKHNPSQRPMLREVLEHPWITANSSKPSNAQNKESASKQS
Experiment: Competition FA assay against FAM-Ahx-TACC3 522-536 tracer
Assay type: binding

[1] = as E1, free-sulfhydryl (reduced) species, DTT 5 mM in buffer, WT control (+DTT), mean ± SD, n = 3, SD, read-out: IC50 (red)
[2] = as E1, free-sulfhydryl (reduced) species, DTT 5 mM in buffer, WT control (+DTT), mean ± SD, n = 3, read-out: IC50 (red)
[3] = as E1, oxidised (disulfide) species made in situ from 10 mM stock in aqueous DMSO 33% v/v, air, overnight, WT control (+DMSO) given the same DMSO incubation, mean ± SD, n = 3, read-out: IC50 (ox)

## CC(=O)N[C@@H](CCC(=O)O)C(=O)N[C@@H](CCC(=O)O)C(=O)N[C@@H](CO)C(=O)N[C@@H](Cc1ccccc1)C(=O)N[C@@H](CCCNC(=N)N)C(=O)N[C@@H](CC(=O)O)C(=O)N1CCC[C@H]1C(=O)N[C@@H](C)C(=O)N[C@@H](CCC(=O)O)C(=O)N[C@H](C(=O)N[C@@H](CC(C)C)C(=O)N[C@@H](CS)C(=O)N[C@H](C(=O)NCC(=O)N[C@@H](CS)C(N)=O)[C@@H](C)O)C(C)C [TACC3 522-536 G533C/A536C (red)] (Ac-EESFRDPAEVLCTGC-NH2)
[1]
  IC50: 80 ± 3 µM

## CC(=O)N[C@@H](CCC(=O)O)C(=O)N[C@@H](CCC(=O)O)C(=O)N[C@@H](CO)C(=O)N[C@@H](Cc1ccccc1)C(=O)N[C@@H](CCCNC(=N)N)C(=O)N[C@@H](CC(=O)O)C(=O)N1CCC[C@H]1C(=O)N[C@@H](C)C(=O)N[C@@H](CCC(=O)O)C(=O)N[C@H](C(=O)N[C@@H](CS)C(=O)NCC(=O)N[C@H](C(=O)N[C@@H](CS)C(=O)N[C@@H](C)C(N)=O)[C@@H](C)O)C(C)C [TACC3 522-536 L532C/G535C (red)] (Ac-EESFRDPAEVCGTCA-NH2)
[2]
  IC50: ≥ 500 µM

## CC(=O)N[C@@H](CCC(=O)O)C(=O)N[C@@H](CCC(=O)O)C(=O)N[C@@H](CO)C(=O)N[C@@H](Cc1ccc(C#N)cc1)C(=O)N[C@@H](CCCNC(=N)N)C(=O)N[C@@H](CC(=O)O)C(=O)N1CCC[C@H]1C(=O)N[C@@H](C)C(=O)N[C@@H](CCC(=O)O)C(=O)N[C@H](C(=O)N[C@@H](CC(C)C)C(=O)NCC(=O)N[C@H](C(=O)NCC(=O)N[C@@H](C)C(N)=O)[C@@H](C)O)C(C)C [TACC3 522-536_(4-CN) -525F]
SD, read-out: IC50
  IC50: 138 ± 8 µM

## CC(=O)N[C@@H](CCC(=O)O)C(=O)N[C@H]1CSSC[C@@H](C(=O)N[C@@H](CC(=O)O)C(=O)N2CCC[C@H]2C(=O)N[C@@H](C)C(=O)N[C@@H](CCC(=O)O)C(=O)N[C@H](C(=O)N[C@@H](CC(C)C)C(=O)NCC(=O)N[C@H](C(=O)NCC(=O)N[C@@H](C)C(N)=O)[C@@H](C)O)C(C)C)NC(=O)[C@H](Cc2ccccc2)NC(=O)[C@H](CO)NC1=O [TACC3 522-536 E523C/R526C (ox)] (Ac-ECSFCDPAEVLGTGA-NH2; disulfide 2-5)
[3]
  IC50: ≥ 500 µM

## CC(=O)N[C@@H](CC(C)C)C(=O)N[C@@H](CCC(=O)O)C(=O)N[C@H]1CSCc2ccc(cc2)-c2ccc(cc2)CSC[C@@H](C(=O)N[C@@H](CC(=O)O)C(=O)N2CCC[C@H]2C(=O)N[C@@H](C)C(=O)N[C@@H](CCC(=O)O)C(=O)N[C@H](C(=O)N[C@@H](CC(C)C)C(N)=O)C(C)C)NC(=O)[C@H](Cc2ccccc2)NC(=O)[C@H](CO)NC(=O)[C@H](CCC(=O)O)NC(=O)[C@H](CCC(=O)O)NC(=O)[C@H](CCCCN)NC1=O [TACC3 518-532 L520C/R526C (Bph)] (Ac-LECKEESFCDPAEVL-NH2; linker 3-9 via Biphenyl(4,4'-CH2)2)
Competition FA IC50 ratio vs WT
  fold enhanced inhibitory potency (IC50) compared to the WT peptide: up to 4 fold

## CC(=O)N[C@@H](CCC(=O)O)C(=O)N[C@@H](CCC(=O)O)C(=O)N[C@@H](CO)C(=O)N[C@@H](Cc1ccccc1)C(=O)N[C@@H](CCCNC(=N)N)C(=O)N[C@@H](CC(=O)O)C(=O)N[C@@H](CS)C(=O)N[C@@H](C)C(=O)N[C@@H](CCC(=O)O)C(=O)N[C@@H](CS)C(=O)N[C@@H](CC(C)C)C(=O)NCC(=O)N[C@H](C(=O)NCC(=O)N[C@@H](C)C(N)=O)[C@@H](C)O [TACC3 522-536 P528C/V531C (red)] (Ac-EESFRDCAECLGTGA-NH2)
[2]
  IC50: ≥ 500 µM

## CC(=O)N[C@@H](CCC(=O)O)C(=O)N[C@@H](CCC(=O)O)C(=O)N[C@@H](CO)C(=O)N[C@@H](Cc1ccccc1)C(=O)N[C@H]1CSCc2ccc(cc2)-c2ccc(cc2)CSC[C@@H](C(=O)N[C@@H](CC(C)C)C(=O)NCC(=O)N[C@H](C(=O)NCC(=O)N[C@@H](C)C(N)=O)[C@@H](C)O)NC(=O)[C@H](CCC(=O)O)NC(=O)[C@H](C)NC(=O)[C@@H]2CCCN2C(=O)[C@H](CC(=O)O)NC1=O [TACC3 522-536 R526C/V531C (Bph)] (Ac-EESFCDPAECLGTGA-NH2; linker 5-10 via Biphenyl(4,4'-CH2)2)
As E1, Table S3 column (Bph): biphenyl-constrained species, WT value is an individual replica control assay, mean ± SD, n = 3, SD, read-out: IC50 (Bph)
  IC50: 249 ± 43 µM

## CC(=O)N[C@@H](CCC(=O)O)C(=O)N[C@@H](CCC(=O)O)C(=O)N[C@@H](CO)C(=O)N[C@@H](Cc1ccccc1)C(=O)N[C@H]1CSSC[C@@H](C(=O)N[C@@H](CCC(=O)O)C(=O)N[C@H](C(=O)N[C@@H](CC(C)C)C(=O)NCC(=O)N[C@H](C(=O)NCC(=O)N[C@@H](C)C(N)=O)[C@@H](C)O)C(C)C)NC(=O)[C@@H]2CCCN2C(=O)[C@H](CC(=O)O)NC1=O [TACC3 522-536 R526C/A529C (ox)] (Ac-EESFCDPCEVLGTGA-NH2; disulfide 5-8)
[3]
  IC50: ≥ 500 µM

## CC(=O)N[C@@H](CCC(=O)O)C(=O)N[C@@H](CCC(=O)O)C(=O)N[C@@H](CO)C(=O)N[C@H]1CSSC[C@@H](C(=O)N[C@@H](C)C(=O)N[C@@H](CCC(=O)O)C(=O)N[C@H](C(=O)N[C@@H](CC(C)C)C(=O)NCC(=O)N[C@H](C(=O)NCC(=O)N[C@@H](C)C(N)=O)[C@@H](C)O)C(C)C)NC(=O)[C@H](CC(=O)O)NC(=O)[C@H](CCCNC(=N)N)NC1=O [TACC3 522-536 F525C/P528C (ox)] (Ac-EESCRDCAEVLGTGA-NH2; disulfide 4-7)
[3]
  IC50: ≥ 500 µM

## CC(=O)N[C@@H](CCC(=O)O)C(=O)N[C@@H](CCC(=O)O)C(=O)N[C@@H](CO)C(=O)N[C@@H](Cc1ccccc1)C(=O)N[C@@H](CS)C(=O)N[C@@H](CC(=O)O)C(=O)N1CCC[C@H]1C(=O)N[C@@H](C)C(=O)N[C@@H](CCC(=O)O)C(=O)N[C@@H](CS)C(=O)N[C@@H](CC(C)C)C(=O)NCC(=O)N[C@H](C(=O)NCC(=O)N[C@@H](C)C(N)=O)[C@@H](C)O [TACC3 522-536 R526C/V531C (red)] (Ac-EESFCDPAECLGTGA-NH2)
[2]
  IC50: ≥ 500 µM

## CC(=O)N[C@@H](CCC(=O)O)C(=O)N[C@@H](CCC(=O)O)C(=O)N[C@@H](CO)C(=O)N[C@@H](Cc1ccccc1)C(=O)N[C@@H](CCCNC(=N)N)C(=O)N[C@@H](CC(=O)O)C(=O)N1CCC[C@H]1C(=O)N[C@@H](C)C(=O)N[C@@H](CS)C(=O)N[C@H](C(=O)N[C@@H](CC(C)C)C(=O)N[C@@H](CS)C(=O)N[C@H](C(=O)NCC(=O)N[C@@H](C)C(N)=O)[C@@H](C)O)C(C)C [TACC3 522-536 E530C/G533C (red)] (Ac-EESFRDPACVLCTGA-NH2)
[2]
  IC50: ≥ 500 µM

## CC(=O)N[C@@H](CCC(=O)O)C(=O)N[C@@H](CCC(=O)O)C(=O)N[C@@H](CO)C(=O)N[C@@H](Cc1ccccc1)C(=O)N[C@@H](CCCNC(=N)N)C(=O)N[C@@H](CC(=O)O)C(=O)N1CCC[C@H]1C(=O)N[C@H]1CSC2=C(SC[C@@H](C(=O)NCC(=O)N[C@H](C(=O)NCC(=O)N[C@@H](C)C(N)=O)[C@@H](C)O)NC(=O)[C@H](C(C)C)NC(=O)[C@H](CCC(=O)O)NC1=O)C(=O)NC2=O [TACC3 522-536 A529C/L532C (mal)] (Ac-EESFRDPCEVCGTGA-NH2; linker 8-11 via Maleimide(3,4-diyl))
As E1, Table S3 (mal): maleimide-constrained species, WT value is an individual replica control assay, mean ± SD, n = 3, SD, read-out: IC50 (mal)
  IC50: 483 ± 58 µM

## CC(=O)N[C@@H](CCC(=O)O)C(=O)N[C@@H](CCC(=O)O)C(=O)N[C@@H](CO)C(=O)N[C@@H](Cc1ccccc1)C(=O)N[C@@H](CS)C(=O)N[C@@H](CC(=O)O)C(=O)N1CCC[C@H]1C(=O)N[C@@H](CS)C(=O)N[C@@H](CCC(=O)O)C(=O)N[C@H](C(=O)N[C@@H](CC(C)C)C(=O)NCC(=O)N[C@H](C(=O)NCC(=O)N[C@@H](C)C(N)=O)[C@@H](C)O)C(C)C [TACC3 522-536 R526C/A529C (red)] (Ac-EESFCDPCEVLGTGA-NH2)
[1]
  IC50: 352 ± 45 µM

## CC(=O)N[C@@H](CCC(=O)O)C(=O)N[C@@H](CCC(=O)O)C(=O)N[C@@H](CO)C(=O)N[C@@H](Cc1ccccc1)C(=O)N[C@@H](CCCNC(=N)N)C(=O)N[C@@H](CC(=O)O)C(=O)N1CCC[C@H]1C(=O)N[C@@H](C)C(=O)N[C@@H](CCC(=O)O)C(=O)N[C@H](C(=O)N[C@@H](CC(C)C)C(=O)N[C@H]1CSC2=C(SC[C@@H](C(N)=O)NC(=O)CNC(=O)[C@H]([C@@H](C)O)NC1=O)C(=O)NC2=O)C(C)C [TACC3 522-536 G533C/A536C (mal)] (Ac-EESFRDPAEVLCTGC-NH2; linker 12-15 via Maleimide(3,4-diyl))
As E1, Table S3 (mal): maleimide-constrained species, WT value is an individual replica control assay, mean ± SD, n = 3, read-out: IC50 (mal)
  IC50: ≥ 500 µM

## CC(=O)N[C@@H](CCC(=O)O)C(=O)N[C@@H](CCC(=O)O)C(=O)N[C@@H](CO)C(=O)N[C@@H](Cc1ccccc1)C(=O)N[C@@H](CCCNC(=N)N)C(=O)N[C@@H](CC(=O)O)C(=O)N1CCC[C@H]1C(=O)N[C@@H](C)C(=O)N[C@@H](CCC(=O)O)C(=O)N[C@@H](CS)C(=O)N[C@@H](CC(C)C)C(=O)NCC(=O)N[C@@H](CS)C(=O)NCC(=O)N[C@@H](C)C(N)=O [TACC3 522-536 V531C/T534C (red)] (Ac-EESFRDPAECLGCGA-NH2)
[2]
  IC50: ≥ 500 µM

## CC(=O)N[C@@H](CCC(=O)O)C(=O)N[C@@H](CCC(=O)O)C(=O)N[C@@H](CO)C(=O)N[C@@H](Cc1ccccc1)C(=O)N[C@H]1CSSC[C@@H](C(=O)N[C@@H](CC(C)C)C(=O)NCC(=O)N[C@H](C(=O)NCC(=O)N[C@@H](C)C(N)=O)[C@@H](C)O)NC(=O)[C@H](CCC(=O)O)NC(=O)[C@H](C)NC(=O)[C@@H]2CCCN2C(=O)[C@H](CC(=O)O)NC1=O [TACC3 522-536 R526C/V531C (ox)] (Ac-EESFCDPAECLGTGA-NH2; disulfide 5-10)
[3]
  IC50: ≥ 500 µM
